For 32 compounds, IC50 results are on record in patent US9586956B2, “Isoquinoline and naphthyridine derivatives” (Genentech, Inc., priority 2012, dated 2017).

In the first assay the target is T1, purified human MAP4K4 kinase domain (Homo sapiens, UniProt O95819).
T1 construct: purified human MAP4K4 kinase domain
T1 sequence (O95819 25-289 limits assumed): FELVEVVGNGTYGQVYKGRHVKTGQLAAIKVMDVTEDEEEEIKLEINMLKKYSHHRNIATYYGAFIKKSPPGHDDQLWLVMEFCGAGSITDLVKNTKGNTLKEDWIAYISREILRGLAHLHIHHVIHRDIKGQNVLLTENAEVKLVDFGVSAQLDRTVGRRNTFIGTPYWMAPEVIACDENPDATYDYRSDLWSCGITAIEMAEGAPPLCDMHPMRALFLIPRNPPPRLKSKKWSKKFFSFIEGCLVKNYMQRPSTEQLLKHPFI
Description: MAP4K4 Inhibition Assay Protocol No. 1 (Caliper LabChip, moesin-derived peptide phosphorylation). In kind it is biochemical. To be noted: Assay 1; 1 nM enzyme, 10 uM ATP, 45 min. In short, it runs like this:
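1 nM enzyme with 1 uM 5-carboxyfluorescein-labelled moesin peptide and 10 uM ATP in 50 mM Hepes pH 7.2, 10 mM MgCl2, 2% DMSO, 45 min at room temperature, then EDTA stop. Phosphorylated fraction of peptide measured by microfluidic mobility shift; IC50 from four-parameter fit.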
Regarding `CCN1CC(NC(=O)c2cnc(N)c3cc(-c4cccc(F)c4)ccc23)C1` [Example 127, 1-amino-N-(1-ethylazetidin-3-yl)-7-(3-fluorophenyl) isoquinoline-4-carboxamide], half-maximal inhibition (IC50) required 1.2 µM.
Still for that read-out and setting: next, `COCC(=O)N1CC(NC(=O)c2cnc(N)c3cc(-c4cccc(F)c4)ccc23)C1` [Example 128, 1-amino-7-(3-fluorophenyl)-N-[1-(2-methoxyacetyl)azetidin-3-yl]isoquinoline-4-carboxamide]: 0.0705 µM.
Consider `CCNC(=O)NCC(CO)NC(=O)c1cnc(N)c2cc(-c3cccc(F)c3)ccc12` (stereo not shown) [Example 133, 1-amino-N-[1-[(ethylcarbamoyl-amino)methyl]-2-hydroxy-ethyl]-7-(3-fluorophenyl) isoquinoline-4-carboxamide], for which 0.0602 µM corresponded to half-maximal inhibition (IC50).
Same read-out and setting: next, `CNCc1cnc(N)c2cc(-c3cccc(F)c3)ccc12` [Example 129, 7-(3-fluorophenyl)-4-(methylaminomethyl) isoquinolin-1-amine]: 4.1 µM; `CNC(=O)N1CC(NC(=O)c2cnc(N)c3cc(-c4cccc(F)c4)ccc23)C1` [Example 8, 1-amino-7-(3-fluorophenyl)-N-[1-(methylcarbamoyl)azetidin-3-yl]isoquinoline-4-carboxamide]: 0.0112 µM.

A further assay addresses T1, purified human MAP4K4 kinase domain. Description: MAP4K4 Inhibition Assay Protocol No. 2 (Z'-LYTE FRET). Type of assay: biochemical. To be noted: Assay 2; 1 nM enzyme, 10 uM ATP, 60 min. From the text:
The kinase activity of purified human MAP4K4 kinase domain was monitored using Z'-LYTE™ technology from Invitrogen to determine inhibition constants (IC50) of small molecule inhibitors. The Z'-LYTE™ biochemical assay employs a fluorescence-based, coupled-enzyme format and is based on the differential sensitivity of phosphorylated and non-phosphorylated peptides to proteolytic cleavage. In the primary reaction, the kinase transfers the gamma-phosphate of ATP to a single tyrosine, serine or threonine residue in a synthetic FRET-peptide. In the secondary reaction, a site-specific protease recognizes and cleaves non-phosphorylated FRET-peptides. Phosphorylation of FRET-peptides suppresses cleavage by the Development Reagent. Cleavage disrupts FRET between the donor (i.e., coumarin) and acceptor (i.e., fluorescein) fluorophores on the FRET-peptide, whereas uncleaved, phosphorylated FRET-peptides maintain FRET. To determine inhibition constants (IC50), compounds were serially diluted in DMSO and added to 10 uL kinase reactions containing 1 nM purified MAP4K4 enzyme, 2 uM ser/thr7 Z'-LYTE™ substrate, 10 uMATP, 50 mM Hepes (pH 7.5), 10 mM MgCl2, 1 mM EGTA, 0.01% Brij-35, and 2% DMSO. Reactions were incubated at room temperature in Corning Black 384 well plates (Corning#3573) for 60 minutes and stopped by the addition of 5 uL of Z'-LYTE™ development reagent A and incubated at room temp for 60 minutes. The plate is then analyzed on Perkin Elmer Envision by FRET mode. The high ratio of coumarin/fluorescein represents 0% phosphorylation rate while low ratio of coumarin/fluorescein represents 100% phosphorylation rate. The following equations are used to determine extent of peptide phosphorylation or inhibition: […]
As for `CCN1CC(NC(=O)c2cnc(N)c3cc(-c4cccc(F)c4)ccc23)C1` [Example 127, 1-amino-N-(1-ethylazetidin-3-yl)-7-(3-fluorophenyl) isoquinoline-4-carboxamide], it took 0.756 µM to reach half-maximal inhibition (IC50).
Still for that read-out and setting: for `COCC(=O)N1CC(NC(=O)c2cnc(N)c3cc(-c4cccc(F)c4)ccc23)C1` [Example 128, 1-amino-7-(3-fluorophenyl)-N-[1-(2-methoxyacetyl)azetidin-3-yl]isoquinoline-4-carboxamide] the value was 0.0724 µM; for `CCNC(=O)NCC(CO)NC(=O)c1cnc(N)c2cc(-c3cccc(F)c3)ccc12` (stereo not shown) [Example 133, 1-amino-N-[1-[(ethylcarbamoyl-amino)methyl]-2-hydroxy-ethyl]-7-(3-fluorophenyl) isoquinoline-4-carboxamide], 0.0919 µM.
On to `CNCc1cnc(N)c2cc(-c3cccc(F)c3)ccc12` [Example 129, 7-(3-fluorophenyl)-4-(methylaminomethyl) isoquinolin-1-amine], for which the half-maximal inhibitory concentration (IC50) (usually the concentration at which inhibition is half-maximal) is 3 µM.
The same measure, in the same setting: for `CNC(=O)N1CC(NC(=O)c2cnc(N)c3cc(-c4cccc(F)c4)ccc23)C1` [Example 8, 1-amino-7-(3-fluorophenyl)-N-[1-(methylcarbamoyl)azetidin-3-yl]isoquinoline-4-carboxamide] the value was 0.015 µM.
Still for that read-out and setting: next, `Nc1ncc(C(=O)NC2CN(CC(F)(F)F)C2)c2ccc(-c3cccc(F)c3)nc12` [Example 22, 8-amino-2-(3-fluorophenyl)-N-(1-(2,2,2-trifluoroethyl)azetidin-3-yl)-1,7-naphthyridine-5-carboxamide]: 0.0244 µM; `Nc1ncc(C(=O)NC2CN(C(=O)C3CC3)C2)c2ccc(-c3ccnc(F)c3)nc12` [Example 44, 8-amino-N-(1-(cyclopropanecarbonyl)azetidin-3-yl)-2-(2-fluoropyridin-4-yl)-1,7-naphthyridine-5-Carboxamide]: 0.00263 µM; `CCOC(=O)c1cnc(N)c2nc(-c3cccc(OC)c3)ccc12` [Example 148, ethyl 8-amino-2-(3-methoxy-phenyl)-1,7-naphthyridine-5-carboxylate]: 0.00853 µM.
The same measure, in the same setting: for `CCOC(=O)c1cnc(N)c2nc(-c3ccc(Cl)cc3Cl)ccc12` [Example 154, ethyl 8-amino-2-(2,4-dichloro-phenyl)-1,7-naphthyridine-5-carboxylate] the value was 0.382 µM; for `Nc1ncc(C(=O)N2CC(NC(=O)C3CC3)C2)c2ccc(-c3cccc(F)c3)nc12` [Example 30, N-(1-(8-amino-2-(3-fluorophenyl)-1,7-naphthyridine-5-carbonyl)azetidin-3-yl)cyclopropanecarboxamide], 0.0139 µM; for `CCOC(=O)c1cnc(N)c2nc(-c3cccc(OC(C)C)c3)ccc12` [Example 146, ethyl 8-amino-2-(3-isopropoxy-phenyl)-1,7-naphthyridine-5-carboxylate], 0.0326 µM.
As to `CCOC(=O)c1cnc(N)c2nc(-c3cccc(S(=O)(=O)N(C)C)c3)ccc12` [Example 142, ethyl 8-amino-2-[3-(dimethyl-sulfamoyl)phenyl]-1,7-naphthyridine-5-carboxylate], the IC50 stood at 0.48 µM.
The same measure, in the same setting: for `Nc1ncc(C(=O)NC2CN(S(=O)(=O)C(F)(F)F)C2)c2ccc(-c3cccc(F)c3)nc12` [Example 23, 8-amino-2-(3-fluorophenyl)-N-(1-((trifluoromethyl)sulfonyl)azetidin-3-yl)-1,7-naphthyridine-5-Carboxamide] the value was 0.0285 µM; for `CCOC(=O)c1cnc(N)c2nc(-c3cccc(OC(F)(F)F)c3)ccc12` [Example 139, ethyl 8-amino-2-[3-(trifluoro-methoxy)phenyl]-1,7-naphthyridine-5-carboxylate], 0.00216 µM; for `Cn1cnc(-c2cnc(N)c3cc(-c4cccc(F)c4)ccc23)c1` [Example 10, 7-(3-fluorophenyl)-4-(1-methylimidazol-4-yl)isoquinolin-1-amine], 0.0287 µM.
On the same count and under the same terms, next, `CCOC(=O)c1cnc(N)c2nc(-c3cccc(C#N)c3)ccc12` [Example 147, ethyl 8-amino-2-(3-cyanophenyl)-1,7-naphthyridine-5-carboxylate]: 0.00145 µM; `Nc1ncc(CNS(=O)(=O)C2CC2)c2ccc(-c3cccc(F)c3)cc12` [Example 134, N-[[1-amino-7-(3-fluoro-phenyl)-4-isoquinolyl]methyl] cyclopropanesulfonamide]: 0.155 µM.
Same read-out and setting: next, `CNC(=O)N1CCC(NC(=O)c2cnc(N)c3cc(-c4cccc(F)c4)ccc23)C1` (stereo not shown) [Example 135, 1-amino-7-(3-fluorophenyl)-N-[1-(methylcarbamoyl)pyrrolidin-3-yl] isoquinoline-4-carboxamide]: 0.162 µM; `Nc1ncc(C(=O)NC2CN(C(=O)C3CC3)C2)c2ccc(-c3cccc(F)c3)nc12` [Example 37, 8-amino-N-(1-(cyclopropanecarbonyl)azetidin-3-yl)-2-(3-fluorophenyl)-1,7-naphthyridine-5-carboxamide]: 0.00294 µM.
`Nc1ncc(-c2cn(CCN3CCOCC3)cn2)c2ccc(-c3cccc(F)c3)nc12` [Example 43, 2-(3-fluorophenyl)-5-(1-(2-morpholinoethyl)-1H-imidazol-4-yl)-1,7-naphthyridin-8-amine] returned an IC50 of 0.00248 µM.
Same read-out and setting: for `CN(C)S(=O)(=O)N1CC(NC(=O)c2cnc(N)c3nc(-c4cccc(F)c4)ccc23)C1` [Example 19, 8-amino-N-(1-(N,N-dimethylsulfamoyl)azetidin-3-yl)-2-(3-fluorophenyl)-1,7-naphthyridine-5-carboxamide] the value was 0.00385 µM; for `CC(C)CNC(=O)c1cnc(N)c2nc(-c3cccc(F)c3)ccc12` [Example 40, 8-amino-2-(3-fluorophenyl)-N-isobutyl-1,7-naphthyridine-5-carboxamide], 0.00563 µM; for `Nc1ncc(C(=O)NC2CN(C(=O)N3CCS(=O)(=O)CC3)C2)c2ccc(-c3cccc(F)c3)nc12` [Example 15, 8-amino-N-(1-(1,1-dioxidothiomorpholine-4-carbonyl)azetidin-3-yl)-2-(3-fluorophenyl)-1,7-naphthyridine-5-carboxamide], 0.00455 µM.
Take `CS(=O)(=O)N1CC(NC(=O)c2cnc(N)c3nc(-c4cccc(F)c4)ccc23)C1` [Example 18, 8-amino-2-(3-fluorophenyl)-N-(1-(methylsulfonyl)azetidin-3-yl)-1,7-naphthyridine-5-carboxamide]: the half-maximal inhibitory concentration (IC50) is 0.0116 µM.
On the same count and under the same terms, for `CCOC(=O)c1cnc(N)c2nc(-c3cc(F)cc(F)c3)ccc12` [Example 145, ethyl 8-amino-2-(3,5-difluoro-phenyl)-1,7-naphthyridine-5-carboxylate] the value was 0.00184 µM; for `CNC(=O)N1CC(NC(=O)c2cnc(N)c3nc(-c4cccc(F)c4)ccc23)C1` [Example 34, 8-amino-2-(3-fluorophenyl)-N-(1-(methylcarbamoyl)azetidin-3-yl)-1,7-naphthyridine-5-carboxamide], 0.0016 µM.
On to `Nc1ncc(C(=O)NC2CN(C(=O)C3COC3)C2)c2ccc(-c3cccc(F)c3)nc12` [Example 17, 8-amino-2-(3-fluorophenyl)-N-(1-(oxetane-3-carbonyl)azetidin-3-yl)-1,7-naphthyridine-5-carboxamide], for which 0.0195 µM corresponded to half-maximal inhibition (IC50).
`CCOC(=O)c1cnc(N)c2nc(-c3ccnc(C)c3)ccc12` [Example 141, ethyl 8-amino-2-(2-methyl-4-pyridyl)-1,7-naphthyridine-5-carboxylate] registered a 50% inhibitory concentration (IC50) of 0.00339 µM.
`CCOC(=O)c1cnc(N)c2nc(-c3cccc(C(=O)N(C)C)c3)ccc12` [Example 144, ethyl 8-amino-2-[3-(dimethyl-carbamoyl)phenyl]-1,7-naphthyridine-5-carboxylate] showed an IC50 of 0.0031 µM.
Same read-out and setting: next, `CCC(=O)NC1CN(C(=O)c2cnc(N)c3nc(-c4cccc(F)c4)ccc23)C1` [Example 29, N-(1-(8-amino-2-(3-fluorophenyl)-1,7-naphthyridine-5-carbonyl)azetidin-3-yl)propionamide]: 0.0608 µM.
Still for that read-out and setting: next, `CCOC(=O)c1cnc(N)c2nc(-c3ccc(OC)cc3)ccc12` [Example 150, ethyl 8-amino-2-(4-methoxy-phenyl)-1,7-naphthyridine-5-carboxylate]: 0.0212 µM; `Nc1ncc(-c2nnco2)c2ccc(-c3cccc(F)c3)nc12` [Example 28, 2-(3-fluorophenyl)-5-(1,3,4-oxadiazol-2-yl)-1,7-naphthyridin-8-amine]: 0.002 µM.
